Test results reported in ChEMBL document CHEMBL3769318, “The Rational Design of Selective Benzoxazepin Inhibitors of the α-Isoform of Phosphoinositide 3-Kinase Culminating in the Identification of (S)-2-((2-(1-Isopropyl-1H-1,2,4-triazol-5-yl)-5,6-dihydrobenzo[f]imidazo[1,2-d][1,4]oxazepin-9-yl)oxy)propanamide (GDC-0326)” (J Med Chem, 2016).

Tests used:
[1] = target: Phosphatidylinositol 4,5-bisphosphate 3-kinase catalytic subunit alpha isoform (Homo sapiens, UniProt P42336); experiment: Inhibition of recombinant PI3K alpha (unknown origin) using PIP2 as substrate by fluorescence polarization assay; details: read-out: Ki(app)
Phosphatidylinositol 4,5-bisphosphate 3-kinase catalytic subunit alpha isoform, sequence (P42336 whole entry, canonical isoform): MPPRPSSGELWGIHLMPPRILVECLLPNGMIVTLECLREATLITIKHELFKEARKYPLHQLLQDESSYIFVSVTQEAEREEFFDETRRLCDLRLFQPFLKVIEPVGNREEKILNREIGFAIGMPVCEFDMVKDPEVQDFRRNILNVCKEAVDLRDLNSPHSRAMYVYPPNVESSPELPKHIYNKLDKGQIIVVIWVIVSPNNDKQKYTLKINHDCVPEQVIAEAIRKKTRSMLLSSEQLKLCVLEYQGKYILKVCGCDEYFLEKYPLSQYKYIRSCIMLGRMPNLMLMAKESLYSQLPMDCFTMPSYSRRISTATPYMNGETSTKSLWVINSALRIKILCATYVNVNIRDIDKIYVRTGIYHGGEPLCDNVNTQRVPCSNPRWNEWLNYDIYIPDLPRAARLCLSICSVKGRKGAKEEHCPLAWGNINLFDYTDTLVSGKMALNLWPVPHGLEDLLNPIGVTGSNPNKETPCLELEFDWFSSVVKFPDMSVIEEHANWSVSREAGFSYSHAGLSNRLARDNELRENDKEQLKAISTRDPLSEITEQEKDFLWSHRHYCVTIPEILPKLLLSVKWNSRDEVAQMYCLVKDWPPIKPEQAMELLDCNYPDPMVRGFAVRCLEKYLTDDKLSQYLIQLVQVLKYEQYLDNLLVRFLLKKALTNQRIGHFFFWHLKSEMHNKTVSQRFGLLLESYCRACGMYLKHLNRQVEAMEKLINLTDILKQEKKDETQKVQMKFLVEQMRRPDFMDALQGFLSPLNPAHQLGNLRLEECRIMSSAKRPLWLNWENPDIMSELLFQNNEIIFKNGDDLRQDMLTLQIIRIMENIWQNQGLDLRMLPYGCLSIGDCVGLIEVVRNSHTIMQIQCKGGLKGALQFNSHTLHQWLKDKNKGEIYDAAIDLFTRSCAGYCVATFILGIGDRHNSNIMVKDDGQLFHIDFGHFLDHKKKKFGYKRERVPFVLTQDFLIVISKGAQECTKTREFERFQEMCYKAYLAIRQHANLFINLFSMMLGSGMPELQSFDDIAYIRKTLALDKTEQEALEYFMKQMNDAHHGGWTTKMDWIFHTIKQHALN

[2] = Clearance in Sprague-Dawley rat at 1 mg/kg, iv; format: ADME, organism-based; details: in vivo
[3] = Antiproliferative activity against human MCF7-neo/Her2 cells after 3 days by luminescence plate reader method; format: functional, cell-based; details: 72 h
[4] = Antiproliferative activity against human PC3 cells after 4 days by luminescence plate reader method; format: functional, cell-based; details: PC-3, 96 h
Hepatocyte [5] = experiment: Drug metabolism in rat hepatocytes; format: ADME, cell-based
Hepatocyte [6] = experiment: Drug metabolism in human hepatocytes; format: ADME, cell-based

| Ki [1] | clearance [2] | Drug metabolism (Hepatocyte [5]) | Drug metabolism (Hepatocyte [6]) | Compound | EC50 [3] | EC50 [4] |
| --- | --- | --- | --- | --- | --- | --- |
| 0.03 nM | 1.98 L/h/kg |  |  | CC(C)n1ncnc1-c1cn2c(n1)-c1ccc(N3CCC[C@H]3C(N)=O)cc1OCC2 | 10 nM | 150 nM |
| 0.1 nM | 4.98 L/h/kg | metabolite_notdetected | metabolite_notdetected | CC(C)n1ncnc1-c1cn2c(n1)-c1cnc(N3CCC[C@H]3C(N)=O)cc1OCC2 |  |  |
